Test results from paper PMC9505023, “Isatin Bis-Indole and Bis-Imidazothiazole Hybrids: Synthesis and Antimicrobial Activity” (Molecules, 2022).
Where “and” joins values, the source holds several entries; their conditions need not be identical. Equal entries are not always repeated.

Assays:
[1] = tested on: Staphylococcus aureus ATCC 25923; assay: Microdilution broth susceptibility test, S. aureus reference strain; conditions: for activity at 100 µM: read-out: S. aureus microbial growth
Description: The in vitro antimicrobial activity of the isatin derivatives was evaluated by a microdilution broth method in accordance with the guidelines provided by a number of international committees, such as The Clinical Laboratory Standards Institute (CLSI) in the U.S. or The European Committee on Antimicrobial Susceptibility Testing (EUCAST) in Europe reference bacterial strains, including Staphylococcus aureus (ATCC 25923) and Escherichia coli (ATCC 25922) and Candida albicans (ATCC 10231), were purchased from the American Type Culture Collection (ATCC); they were routinely cultured in 5% sheep blood agar plate and in Sabauraud dextrose agar, respectively, at 37 °C. Clinical isolates, identified by MALDI-TOF MS (Bruker Daltonik, GmbH, Bremen, Germany), were profiled for their antibiotic susceptibility by using the Vitek2 semiautomated system (bioMerieux, Craponne, France) and according to EUCAST guidelines [EUCAST: The European Committee on Antimicrobial Susceptibility Testing. Breakpoint tables for interpretation of MICs and zone diameters. Version 12, 2022, http://www.eucast.org (accessed on 1 January 2022)].
Microbial inocula were prepared at 0.5 McFarland in PBS and, subsequently, bacterial suspensions were diluted 1:200 in Mueller–Hinton broth (Sigma-Aldrich, St. Louis, MO, USA), while fungal inoculum was diluted 1:20 in RPMI-1640 medium (Gibco®, ThermoFisher Scientific Inc., Waltham, MA, USA), containing glucose 2%, 0.3% levo-glutamine buffered to pH 7.0 with 0.165 M 3-(N-morpholino)propanesulfonic acid (MOPS). A total of 100 µL of these microbial suspensions were introduced in a 96-well microplate and treated with 100 µL of the compound at 100 µM or with two-fold serial dilutions of the compound in the range of 400 µM–3.12 µM. All compounds were previously dissolved in 100% DMSO at a concentration of 20 mM. Experiments included controls used to measure the microbial growth in regular medium (positive control) and to check the background turbidity of the reagents and the sterility of the procedures (negative controls). In addition, microbial growths were assessed in the presence of the DMSO solvent in the range of 0.015–2%. The inoculated plate was incubated at 37 °C for 24 h, and subsequently, the optical density at 630 nm was measured by the Multiskan Ascent microplate reader (Thermo Fisher Scientific Inc., Waltham, MA, USA). […] All the experiments were performed on triplicate in at least two independent assays.

[2] = tested on: Escherichia coli ATCC 25922; assay: Microdilution broth susceptibility test, E. coli reference strain; format: cell-based; conditions: ATCC25922, 24 h, growth as percentage relative to positive growth control, mean ± SD, read-out: E. coli microbial growth
Description: (§1) Breakpoint tables for interpretation of MICs and zone diameters.

[3] = tested on: Candida albicans ATCC 10231; assay: Microdilution broth susceptibility test, C. albicans reference strain; format: cell-based; conditions: for activity at 100 µM: Candida albicans, ATCC10231, 24 h, growth as percentage relative to positive growth control, mean ± SD, read-out: C. albicans microbial growth
Description: as §1

Vero cells (ATCC CCL-81) = assay: Cytotoxicity test, WST8-based CCK-8 cell viability; design: species or system African green monkey; Vero cell proliferation: unit: %; conditions: 100 µM; for Vero cell proliferation: 48 h, cell viability as percentage relative to untreated controls, mean ± SD
Description: African green monkey kidney cells (Vero ATCC CCL-81) obtained from ATCC were cultured in Eagle’s minimal essential medium (MEM) (Sigma-Aldrich, St. Louis, MO, USA), supplemented with 10% fetal bovine serum (FBS) (Carlo Erba Reagents, Milan, Italy), 100 U/mL penicillin, and 100 µg/mL streptomycin at 37 °C with 5% CO2. For the experiments, the cells were seeded into 96-well plates at 10^4 cells/well and incubated at 37 °C for 24 h. Following washes with PBS, the cell monolayer was incubated with 100 µL of medium containing 100 µM of the derivatives. Both untreated cells and cells incubated with the solvent were included in each experiment as controls. The cell viability was assessed by a WST8-based assay according to the manufacturer’s instructions (CCK-8, Cell Counting Kit-8, Dojindo Molecular Technologies, Rockville, MD, USA). After 48 h of incubation, the culture medium was removed from each well, the monolayer was washed with PBS, and 100 µL of fresh medium containing 10 µL of CCK-8 solution were added. Following 2 h at 37 °C, the absorbance was measured at 450/630 nm; data were calculated as the percentage of the cell viability relative to the untreated controls.

[4] = tested on: S. aureus clinical isolates (MSSA and MRSA); assay: Microdilution broth susceptibility test, S. aureus clinical isolates; format: cell-based; conditions: Staphylococcus aureus, 10 clinical isolates, read-out: IC50 against S. aureus clinical isolates (range over isolates)
Description: as §1

[5] = Staphylococcus aureus, ATCC25923, 24 h

| SMILES | activity at 100 µM [1, 5] [%] | activity at 100 µM [2] [%] | activity at 100 µM [3] [%] | Vero cell proliferation (Vero cells (ATCC CCL-81)) | Activity against S. aureus in words ([1]; 100 µM) | Efficacy at the highest tested concentration in words ([1]; 400 µM) | Selectivity of antibacterial activity versus cytotoxicity in words ([1]; S. aureus growth compared with Vero cytotoxicity at 100 µM) | IC50 ([1]; Staphylococcus aureus, ATCC25923, 24 h, read-out: IC50 against S. aureus) | IC50 [4] [µM] | Antifungal activity against C. albicans in words ([3]; 100 µM (48.93 µg/mL)) | Cytotoxicity on Vero cells in words (Vero cells (ATCC CCL-81)) |
| --- | --- | --- | --- | --- | --- | --- | --- | --- | --- | --- | --- |
| O=C1Nc2ccccc2C1(c1c(Cl)nc2sccn12)c1c(Cl)nc2sccn12 [6c, 3,3-bis(6-chloroimidazo[2,1-b]thiazol-5-yl)indolin-2-one] | 95.4 ± 2.4 | 117 ± 3.1 | 126 ± 2.1 | 92.8 ± 4.8 | – | – | – | – | – | – | – |
| COc1ccc2c(c1)C(c1c(Cl)nc3sccn13)(c1c(Cl)nc3sccn13)C(=O)N2 [6k, 3,3-bis(6-chloroimidazo[2,1-b]thiazol-5-yl)-5-methoxyindolin-2-one] | 43.4 ± 5.6 | 103 ± 2.4 | 104 ± 1.9 | 70.9 ± 5.6 | highly active | completely inhibit bacterial growth | selective inhibitory property against the Gram-positive strain | 39.1 µg/mL and 80 µM | 73 to 85.3 | – | – |
| O=C1Nc2cccc(I)c2C1(C1CNc2ccccc21)C1CNc2ccccc21 (stereo not shown) [4h, 4′-iodo-[3,3′:3′,3″-terindolin]-2′-one] | 72.8 ± 6.1 | 82 ± 1.5 | 23.2 ± 2.1 | 10.6 ± 0.3 | – | – | – | – | – | significantly reduced the growth of C. albicans | affect Vero cells proliferation |
| O=C1Nc2c(Cl)ccc(Cl)c2C1(C1CNc2ccccc21)C1CNc2ccccc21 (stereo not shown) [4f, 4′,7′-dichloro-[3,3′:3′,3″-terindolin]-2′-one] | 75.8 ± 1.8 | 96.9 ± 1.7 | 107 ± 4.2 | 9.8 ± 0.5 | – | – | – | – | – | – | affect Vero cells proliferation |
| COc1ccc(CN2C(=O)C(C3CNc4ccccc43)(C3CNc4ccccc43)c3cc(OC)ccc32)cc1 (stereo not shown) [4g, 5′-methoxy-1′-(4-methoxybenzyl)-[3,3′:3′,3″-terindolin]-2′-one] | 86.2 ± 5.7 | 100.3 ± 0.7 | 50.6 ± 6.6 | 107.9 ± 8.9 | – | – | – | – | – | – | – |
| COc1ccc2c(c1)C(C1(C3CNc4ccc(OC)cc43)C(=O)N(Cc3ccc(Cl)cc3)c3ccccc31)CN2 (stereo not shown) [5m, 1′-(4-chlorobenzyl)-5,5″-dimethoxy-[3,3′:3′,3″-terindolin]-2′-one] | 95.1 ± 3.9 | 113 ± 0.6 | 88.2 ± 5.2 | 87.0 ± 5.7 | – | – | – | – | – | – | – |
| Cc1cc(C)c2c(c1)NC(=O)C2(C1CNc2ccccc21)C1CNc2ccccc21 (stereo not shown) [4e, 4′,6′-dimethyl-[3,3′:3′,3″-terindolin]-2′-one] | 71.2 ± 8.7 | 103 ± 1.4 | 68.8 ± 2.7 | 8.5 ± 0.3 | – | – | – | – | – | – | affect Vero cells proliferation |
| COc1ccc(CN2C(=O)C(c3c(Cl)nc4sccn34)(c3c(Cl)nc4sccn34)c3cc(OC)ccc32)cc1 [6g, 3,3-bis(6-chloroimidazo[2,1-b]thiazol-5-yl)-5-methoxy-1-(4-methoxybenzyl)indolin-2-one] | 67.4 ± 8.4 | 73.6 ± 9.1 | 92.4 ± 3.6 | 84.3 ± 0.9 | – | – | – | – | – | – | – |
| O=C1Nc2cc(OC(F)(F)F)ccc2C1(C1CNc2ccccc21)C1CNc2ccccc21 (stereo not shown) [4l, 6′-(trifluoromethoxy)-[3,3′:3′,3″-terindolin]-2′-one] | 72 ± 2.2 | 103 ± 1.6 | 93.3 ± 2.1 | 8.9 ±0.4 | – | – | – | – | – | – | – |
| COc1ccc2c(c1)C(C1(C3CNc4ccc(OC)cc43)C(=O)Nc3cc(OC)c(OC)c(OC)c31)CN2 (stereo not shown) [5d, 4′,5,5′,5″,6′-pentamethoxy-[3,3′:3′,3″-terindolin]-2′-one] | 89.1 ± 7 | 117 ± 1.1 | 120 ± 2 | 54.3 ± 0.9 | – | – | – | – | – | – | – |
